Assays:
mouse pups [1] = assay: Cross-fostering study of WT and St6Gal1 KO (6SL KO) mouse pups reared to WT or KO dams, with cognitive tests (T-maze, pre-pulse inhibition, Barnes maze, attentional set-shifting) in adulthood; type: in vivo; conditions: mouse pups receiving milk absent of 6′-SL, compared with pups receiving milk comprising 6′-SL; evaluated as adults
From the text: (§1) This effects were observed on a background of no changes in term of neurodevelopment evaluated by the onset and strength of reflexes using the Fox scale.
Adult wild-type (WT) B6.129 and heterozygous (HZ) B6.129-St6gal1^tm2Jxm breeding pairs (four males and four females and three males and four females, respectively) were purchased from a commercial breeder (The Jackson Laboratory). Upon arrival, same-sex mice were housed in same-sex groups of 2-3 in type-1 polycarbonate cages (33.0×13.0×14.0 cm) equipped with sawdust bedding, an enrichment bag (Mucedola, Settimo Milanese, Italy), metal top and ad libitum water and food pellets (Mucedola, Settimo Milanese, Italy). Mice were maintained on a reversed 12-h-light-dark cycle (light on at 7:00 PM) in an air-conditioned room (temperature 21±1° C. and relative humidity 60±10%). Two weeks after arrival, breeding triads (one male, two females) were formed. After two weeks of mating, male mice were removed and females were housed individually in standard type-1 cages. Females were checked daily for delivery and the day in which they gave birth was designated as postnatal day (PND) 0. Apart from cage cleaning once a week, dams and their offspring were kept undisturbed until weaning (on PND 25). […]
The aforementioned subjects have then been evaluated for neurodevelopmental milestones, cognitive capabilities (inc. attention) as outlined in figure two. […]

mouse pups [2] = assay: Neurodevelopmental milestones: onset and strength of reflexes on the Fox scale; type: in vivo; conditions: mouse pups receiving milk absent of 6′-SL, compared with pups receiving milk comprising 6′-SL
Method: as §1
On PND3, PND7, and PND12 mice were evaluated for the onset of neurodevelopmental milestones through the administration of Fox scales. The latter consist of a series of rapid tests to evaluate the maturity of a series of reflexes: righting (capability of mice to turn over with all four paws on the ground when placed on its back); grasping (the mouse is placed on a wire-mesh grid which is progressively tilted until the subject harmlessly falls on a soft surface, positioned 2 cm below the grid); cliff aversion (which measures the capability of mice to withdraw from a perceived visual cliff). Furthermore, pups' bodyweight and body length were constantly monitored throughout development.

neurodevelopment evaluated by the onset and strength of reflexes using the Fox scale (mouse pups [2]): no changes
Compound: CC(=O)N[C@H]1[C@H]([C@H](O)[C@H](O)CO)O[C@@](OC[C@H]2O[C@@H](O[C@H]3[C@H](O)[C@@H](O)C(O)O[C@@H]3CO)[C@H](O)[C@@H](O)[C@H]2O)(C(=O)O)C[C@@H]1O (stereo partly drawn) [6′-sialyllactose, (6R)-5-Acetamido-3,5-dideoxy-6-[(1R,2R)-1,2,3-trihydroxypropyl]-β-L-threo-hex-2-ulopyranonosyl-(2->6)-β-D-galactopyranosyl-(1->4)-D-glucopyranose]
attention (mouse pups [1]): decreased attention
impulsivity (mouse pups [1]): increased impulsivity
